Laboratory results reported in the supplement of paper PMC10307832.

Columns and labels:
Test in all cases: relative viability (nuclei count vs DMSO), 5 days (fraction); higher = more cells survive
LC-2-ad = system: LC-2-ad
Procedure, shortened: (§1)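 Values are medians from duplicate plates. Each reflects relative viability, defined as the nuclei count of treated wells over that of vehicle wells. Lung cancer cell lines in 1536-well plates were pin-tool dosed one day after seeding with one drug alone or with a fixed anchor-drug dose plus five library-drug doses (not always all listed) in √10 steps, then fixed, stained and imaged at 4× after 5 days.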

NCI-H441 = system: NCI-H441
Procedure, shortened: as §1

NCI-H596 = system: NCI-H596
Procedure, shortened: as §1

NCI-H1915 = system: NCI-H1915
Procedure, shortened: as §1

CAL-12T = system: CAL-12T
Procedure, shortened: as §1

NCI-H520 = system: NCI-H520
Procedure, shortened: as §1

NCI-H727 = system: NCI-H727
Procedure, shortened: as §1

NCI-H2087 = system: NCI-H2087
Procedure, shortened: as §1

H3255 = system: H3255
Procedure, shortened: as §1

NCI-H1651 = system: NCI-H1651
Procedure, shortened: as §1

A-427 = system: A-427
Procedure, shortened: as §1

ABC-1 = system: ABC-1
Procedure, shortened: as §1

NCI-H650 = system: NCI-H650
Procedure, shortened: as §1

BEN = system: BEN
Procedure, shortened: as §1

NCI-H1650 = system: NCI-H1650
Procedure, shortened: as §1

NCI-H1944 = system: NCI-H1944
Procedure, shortened: as §1

NCI-H661 = system: NCI-H661
Procedure, shortened: as §1

LCLC-97TM1 = system: LCLC-97TM1
Procedure, shortened: as §1

NCI-H460 = system: NCI-H460
Procedure, shortened: as §1

NCI-H2023 = system: NCI-H2023
Procedure, shortened: as §1

PC-3 [JPC-3] = system: PC-3 [JPC-3]
Procedure, shortened: as §1

201T = system: 201T
Procedure, shortened: as §1

For `COc1nc(C)cnc1NS(=O)(=O)c1cccnc1-c1ccc(-c2nnco2)cc1` [Zibotentan] + Cc1cc(Nc2cc(N3CCN(C)CC3)nc(Sc3ccc(NC(=O)C4CC4)cc3)n2)n[nH]1 [Tozasertib] (partner 0.1 µM), the relative viability (LC-2-ad; first compound 0.08 µM) was 0.436, the relative viability (LC-2-ad; first compound 0.8 µM) was 0.574 and the relative viability (LC-2-ad; first compound 2.53 µM) was 0.452. It also gave a relative viability (NCI-H441; first compound 0.08 µM) of 0.633, a relative viability (NCI-H441; first compound 0.253 µM) of 0.545 and a relative viability (NCI-H441; first compound 0.8 µM) of 0.728. The relative viability (NCI-H441; first compound 2.53 µM) was 0.592, the relative viability (NCI-H596; first compound 0.08 µM) was 0.883 and the relative viability (NCI-H596; first compound 0.253 µM) was 0.846. The relative viability (NCI-H596; first compound 0.8 µM) was 0.684, the relative viability (NCI-H596; first compound 2.53 µM) was 1.07 and the relative viability (NCI-H1915; first compound 0.08 µM) was 0.453. The relative viability (NCI-H1915; first compound 0.253 µM) was 0.409, the relative viability (NCI-H1915; first compound 0.8 µM) was 0.428 and the relative viability (NCI-H1915; first compound 2.53 µM) was 0.417. The relative viability (CAL-12T; first compound 0.08 µM) was 0.268, the relative viability (CAL-12T; first compound 0.253 µM) was 0.289 and the relative viability (CAL-12T; first compound 0.8 µM) was 0.351. For the same compound, the relative viability (CAL-12T; first compound 2.53 µM) was 0.31, the relative viability (NCI-H520; first compound 0.08 µM) was 0.431 and the relative viability (NCI-H520; first compound 0.253 µM) was 0.479. For the same compound, the relative viability (NCI-H520; first compound 0.8 µM) was 0.441, the relative viability (NCI-H520; first compound 2.53 µM) was 0.442 and the relative viability (NCI-H727; first compound 0.08 µM) was 0.692. The relative viability (NCI-H727; first compound 0.253 µM) was 0.624, the relative viability (NCI-H727; first compound 0.8 µM) was 0.629 and the relative viability (NCI-H727; first compound 2.53 µM) was 0.648. The relative viability (NCI-H2087; first compound 0.08 µM) was 0.249, the relative viability (NCI-H2087; first compound 0.253 µM) was 0.268 and the relative viability (NCI-H2087; first compound 0.8 µM) was 0.249. The relative viability (NCI-H2087; first compound 2.53 µM) was 0.238, the relative viability (H3255; first compound 0.08 µM) was 0.693 and the relative viability (H3255; first compound 0.253 µM) was 0.604. The relative viability (H3255; first compound 0.8 µM) was 0.742, the relative viability (H3255; first compound 2.53 µM) was 0.888 and the relative viability (NCI-H1651; first compound 0.08 µM) was 0.678. It also gave a relative viability (NCI-H1651; first compound 0.253 µM) of 0.552, a relative viability (NCI-H1651; first compound 0.8 µM) of 0.767 and a relative viability (NCI-H1651; first compound 2.53 µM) of 0.717. The relative viability (A-427; first compound 0.08 µM) was 0.232, the relative viability (A-427; first compound 0.253 µM) was 0.205 and the relative viability (A-427; first compound 0.8 µM) was 0.25. For the same compound, the relative viability (A-427; first compound 2.53 µM) was 0.258, the relative viability (ABC-1; first compound 0.08 µM) was 0.175 and the relative viability (ABC-1; first compound 0.253 µM) was 0.163. It also gave a relative viability (ABC-1; first compound 0.8 µM) of 0.193, a relative viability (ABC-1; first compound 2.53 µM) of 0.201 and a relative viability (NCI-H650; first compound 0.08 µM) of 0.871. For the same compound, the relative viability (NCI-H650; first compound 0.253 µM) was 0.699, the relative viability (NCI-H650; first compound 0.8 µM) was 0.692 and the relative viability (NCI-H650; first compound 2.53 µM) was 0.738. The relative viability (BEN; first compound 0.08 µM) was 0.542, the relative viability (BEN; first compound 0.253 µM) was 0.426 and the relative viability (BEN; first compound 0.8 µM) was 0.473. For the same compound, the relative viability (BEN; first compound 2.53 µM) was 0.642, the relative viability (NCI-H1650; first compound 0.08 µM) was 0.491 and the relative viability (NCI-H1650; first compound 0.8 µM) was 0.487. For the same compound, the relative viability (NCI-H1650; first compound 2.53 µM) was 0.418, the relative viability (NCI-H1944; first compound 0.08 µM) was 0.252 and the relative viability (NCI-H1944; first compound 0.253 µM) was 0.236. For the same compound, the relative viability (NCI-H1944; first compound 0.8 µM) was 0.242, the relative viability (NCI-H1944; first compound 2.53 µM) was 0.271 and the relative viability (NCI-H661; first compound 0.08 µM) was 0.369. It also gave a relative viability (NCI-H661; first compound 0.253 µM) of 0.334, a relative viability (NCI-H661; first compound 0.8 µM) of 0.347 and a relative viability (NCI-H661; first compound 2.53 µM) of 0.364. It also gave a relative viability (LCLC-97TM1; first compound 0.08 µM) of 0.228, a relative viability (LCLC-97TM1; first compound 0.253 µM) of 0.237 and a relative viability (LCLC-97TM1; first compound 0.8 µM) of 0.21. It also gave a relative viability (LCLC-97TM1; first compound 2.53 µM) of 0.233, a relative viability (NCI-H460; first compound 0.08 µM) of 0.625 and a relative viability (NCI-H460; first compound 0.253 µM) of 0.158. It also gave a relative viability (NCI-H460; first compound 0.8 µM) of 0.106, a relative viability (NCI-H460; first compound 2.53 µM) of 0.385 and a relative viability (NCI-H2023; first compound 0.08 µM) of 0.356. The relative viability (NCI-H2023; first compound 0.253 µM) was 0.254, the relative viability (NCI-H2023; first compound 0.8 µM) was 0.298 and the relative viability (NCI-H2023; first compound 2.53 µM) was 0.387. It also gave a relative viability (PC-3 [JPC-3]; first compound 0.08 µM) of 0.869, a relative viability (PC-3 [JPC-3]; first compound 0.253 µM) of 0.903 and a relative viability (PC-3 [JPC-3]; first compound 0.8 µM) of 0.853. It also gave a relative viability (PC-3 [JPC-3]; first compound 2.53 µM) of 0.878, a relative viability (201T; first compound 0.08 µM) of 1.07 and a relative viability (201T; first compound 0.253 µM) of 0.881. For the same compound, the relative viability (201T; first compound 0.8 µM) was 0.955 and the relative viability (201T; first compound 2.53 µM) was 1.04.
